# Where “and” joins values, the source holds several entries; their conditions need not be identical. Equal values may be shown once.
# Tests used:
# [1] = CNS side effects in rhesus monkeys; conditions: rhesus monkey, in vivo, po, read-out: NOAEL for decreased spatial working memory performance and CNS side effects (oral movements)
# Protocol: CNS side effects and decreased spatial working memory performance only occurred together in monkeys administered high dose AZD0328. The NOAEL for decreased spatial working memory performance and oral movements in rhesus monkeys was determined to be 0.016 mg/kg. Doses projected to produce therapeutic benefits in human subjects are those doses that were effective in functional assays across three species and were below the NOAEL for adverse effects on cognitive function and general behaviour in rhesus monkeys (<0.016 mg/kg). Doses projected to produce therapeutic benefits in human subjects therefore fall in the range 0.0001-0.01 mg/kg.
# [2] = Single dose PK/TK, minipig; type: in vivo
# From the text: (§1) This section provides a summary of the pharmacokinetic and metabolism properties of AZD0328 derived from in vivo studies. […] The derived PK/TK parameters from these studies are presented in Table 4 for single dose studies (DMR4, 0619LR, 20030191PCR, DMO16, DMB10, DMW12, 50190, 0190DD and 03.330/1), and are presented in Table 5 multiple dose PK/TK studies (DMR4, 0612AR, DMB15, 50190, 0190DD and 0295AD).
# [3] = target: α7 receptor (Rattus norvegicus, UniProt Q05941); assay: Hippocampal slice GABA sIPSC frequency; type: cell-based; conditions: 5 μM
# Sequence of α7 receptor (Q05941 23-502): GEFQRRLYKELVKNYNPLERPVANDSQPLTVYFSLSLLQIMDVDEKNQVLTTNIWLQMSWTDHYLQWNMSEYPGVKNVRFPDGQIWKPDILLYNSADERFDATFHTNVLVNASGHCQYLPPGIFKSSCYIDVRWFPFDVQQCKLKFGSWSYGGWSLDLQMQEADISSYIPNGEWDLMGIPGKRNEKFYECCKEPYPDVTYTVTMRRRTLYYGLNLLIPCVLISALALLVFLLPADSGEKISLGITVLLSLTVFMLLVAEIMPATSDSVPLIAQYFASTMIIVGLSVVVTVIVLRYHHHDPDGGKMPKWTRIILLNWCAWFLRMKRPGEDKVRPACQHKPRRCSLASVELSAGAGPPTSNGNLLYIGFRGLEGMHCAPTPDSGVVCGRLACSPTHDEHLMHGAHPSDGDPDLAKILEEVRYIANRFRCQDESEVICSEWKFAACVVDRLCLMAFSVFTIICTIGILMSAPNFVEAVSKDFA
# From the text: In membranes prepared either from cultured, human recombinant α7 receptor-expressing, human embryonic kidney cells α7-HEK) or from rat brain hippocampus, AZD0328 competed with binding of an iodinated form of the high-affinity, selective α7 receptor antagonist snake toxin, [^125I]-α-bungarotoxin (BTX) (Table 1). In Xenopus oocytes injected with human, recombinant α7 receptor mRNA, AZD0328 activates whole cell currents (Table 2). […] In acutely dissociated rat hippocampal interneurons, AZD0328 elicits rapidly activated, desensitizing whole-cell current (Table 1), consistent with the known properties of rat neuronal α7 receptors. […] AZD0328 modulates synaptic function, consistent with the well-known role of α7 receptors as heteroreceptor modulators of glutamatergic and GABAergic synaptic function.
# [4] = Multiple dose PK/TK, minipig; type: in vivo; conditions: capsules fasted; for AUC / Cmax / Tmax: both sexes, Gottingen, minipig, in vivo, po
# From the text: as §1
# [5] = tested on: dogs; assay: Maximum tolerated dose and 7 days oral toxicity in the dog; type: in vivo
# Protocol: (§2) Single doses of 4.5 to 17 mg/kg were administrated to test AZD0328 to 2 male and 2 female dogs. […] Signs of nausea and at the higher doses vomiting was seen. In the 7 days repeated dose study 2 male and 2 female dogs were given 35 mg/kg per day. However, vomiting was the major clinical sign recorded during the study.
# [6] = as above; type: in vivo; conditions: both sexes, dog, in vivo, oral; dogs, single doses of 4.5 to 17 mg/kg
# Protocol: as §2
# [7] = Single oral dose pharmacokinetics in healthy human volunteers; type: in vivo; set-up: AUC/dose: unit not given beside the values; conditions: for Cmax / Tmax / AUC / AUC(0-t) / half-life: human, plasma; for Cmax / AUC / AUC(0-t) / half-life / Cmax/Dose / AUC/dose / CL/F: geometric mean; for Tmax: median
# Protocol: Total oral doses of AZD0328 in the range 0.025-0.68 mg produced mean plasma concentrations of 0.6-15 nM, consistent with the range of plasma concentrations found to be associated with improved performance in the spatial delayed response test in monkeys. Total oral doses of AZD0328 in the range 0.005-2 mg produced mean plasma concentrations of 0.17-43.9 nM, within the range of plasma concentrations found to be associated with improved performance in rodent models.
# [8] = target: α7 receptor binding sites (Rattus norvegicus, UniProt Q05941); type: in vivo; conditions: sc, 2-4 h
# Sequence of α7 receptor binding sites (Q05941 23-502): as above
# [9] = Allometric scaling / predicted human pharmacokinetics
# [10] = both sexes, Gottingen, in vivo, minipig 2M+2F, 50190, single oral 73.1 mg/kg (338 μmol/kg), capsules, fasted
# [11] = both sexes, Gottingen, in vivo, minipig 2M+2F, 50190, single oral 563 mg/kg (2602 μmol/kg), capsules, fasted
# [12] = male, Gottingen, in vivo, minipig 3M, DMW12, single oral 16.9 mg/kg (78.1 μmol/kg), solution, fed
# [13] = 73.1 mg/kg, minipig 2F+2M, 50190, 73.1 mg/kg (338 μmol/kg), day 1
# [14] = 73.1 mg/kg, minipig 2F+2M, 50190, 73.1 mg/kg (338 μmol/kg), day 7
# [15] = 422 mg/kg, minipig 2F+2M, 50190, 422 mg/kg (1951 μmol/kg), day 7
# [16] = allometric scaling of in vivo data from rat and monkey
smiles,measurement,setting,value
"c1cnc2c(c1)C[C@@]1(CN3CCC1CC3)O2 [AZD0328, (R)-Spiro[1-azabicyclo[2.2.2]octane-3,2′(3′H)-furo[2,3-b]pyridine]]",NOAEL,[1],16 µg/kg
same,AUC,[2]; [10],3140 ng·h/mL and 14.5 µM·h
same,Cmax,[2]; [10],379 ng/mL and 1.75 µM
same,Tmax,[2]; [10],2 to 6 h
same,AUC,[2]; [11],18200 ng·h/mL and 84.2 µM·h
same,Cmax,[2]; [11],1910 ng/mL and 8.84 µM
same,Tmax,[2]; [11],12 h
same,clearance,"[2]; male, Gottingen, in vivo, minipig 3M, DMW12, iv 8.5 mg/kg (39.3 μmol/kg)",35.5 mL/min/kg
same,half-life,"[2]; male, Gottingen, in vivo, minipig 3M, DMW12, iv 8.5 mg/kg (39.3 μmol/kg), read-out: T½ (converted)",3.71 ± 1.72 h
same,Vd,"[2]; male, Gottingen, in vivo, minipig 3M, DMW12, iv 8.5 mg/kg (39.3 μmol/kg), read-out: Vss",11.1 ± 4.2 L/kg
same,AUC,[2]; [12],404 ng·h/mL and 1.87 µM·h
same,Cmax,[2]; [12],81.3 ng/mL and 376 nM
same,Tmax,[2]; [12],1 to 4 h
same,F,"[2]; minipig 3M, DMW12, oral 16.9 mg/kg vs iv 8.5 mg/kg",5.19 ± 2.22%
same,GABA sIPSC frequency,[3],251 % baseline
same,AUC,[4]; [13],3140 ng·h/mL and 14.5 µM·h
same,Cmax,[4]; [13],379 ng/mL and 1.75 µM
same,Tmax,[4]; [13],2 to 6 h
same,AUC,[4]; [14],4610 ng·h/mL and 21.3 µM·h
same,Cmax,[4]; [14],794 ng/mL and 3.67 µM
same,Tmax,[4]; [14],0.5 to 4 h
same,AUC,[4]; [15],25700 ng·h/mL to 27700 ng·h/mL and 119 µM·h to 128 µM·h
same,Cmax,[4]; [15],1420 ng/mL to 1570 ng/mL and 6.57 µM to 7.24 µM
same,Tmax,[4]; [15],12 h
same,AUC/dose,"[4]; minipig 2F+2M, 50190, 73.1 mg/kg (338 μmol/kg), day 1",0.0429 ± 0.0275
same,AUC/dose,"[4]; minipig 2F+2M, 50190, 73.1 mg/kg (338 μmol/kg), day 7",0.0630 ± 0.0288
same,AUC/dose,"[4]; minipig 2F+2M, 50190, 422 mg/kg (1951 μmol/kg), day 7",0.0610-0.0656
same,dose with slight QT prolongation (ECG),[5],≥ 8600 µg/kg
same,Cmax,[6],2800 to 14000 nM
same,Cmax,[7]; single oral dose 0.005 mg,0.17 nM
same,Tmax,[7]; single oral dose 0.005 mg,0.8 h
same,AUC,[7]; single oral dose 0.025 mg,0.0061 µM·h
same,AUC(0-t),[7]; single oral dose 0.025 mg,0.0046 µM·h
same,Cmax,[7]; single oral dose 0.025 mg,0.6 nM
same,half-life,[7]; single oral dose 0.025 mg,6.3 h
same,Tmax,[7]; single oral dose 0.025 mg,1.3 h
same,AUC,[7]; single oral dose 0.075 mg,0.0169 µM·h
same,AUC(0-t),[7]; single oral dose 0.075 mg,0.0156 µM·h
same,Cmax,[7]; single oral dose 0.075 mg,2.1 nM
same,half-life,[7]; single oral dose 0.075 mg,5.9 h
same,Tmax,[7]; single oral dose 0.075 mg,1.5 h
same,AUC,[7]; single oral dose 0.23 mg,0.0652 µM·h
same,AUC(0-t),[7]; single oral dose 0.23 mg,0.0588 µM·h
same,Cmax,[7]; single oral dose 0.23 mg,6.4 nM
same,half-life,[7]; single oral dose 0.23 mg,6.7 h
same,Tmax,[7]; single oral dose 0.23 mg,1.5 h
same,AUC,[7]; single oral dose 0.68 mg,0.144 µM·h
same,AUC(0-t),[7]; single oral dose 0.68 mg,0.133 µM·h
same,Cmax,[7]; single oral dose 0.68 mg,15 nM
same,half-life,[7]; single oral dose 0.68 mg,6 h
same,Tmax,[7]; single oral dose 0.68 mg,2.2 h
same,AUC,[7]; single oral dose 1.35 mg,0.333 µM·h
same,AUC(0-t),[7]; single oral dose 1.35 mg,0.3 µM·h
same,Cmax,[7]; single oral dose 1.35 mg,31 nM
same,half-life,[7]; single oral dose 1.35 mg,6.9 h
same,Tmax,[7]; single oral dose 1.35 mg,3.2 h
same,AUC,[7]; single oral dose 2 mg,0.421 µM·h
same,AUC(0-t),[7]; single oral dose 2 mg,0.395 µM·h
same,Cmax,[7]; single oral dose 2 mg,43.9 nM
same,half-life,[7]; single oral dose 2 mg,5.6 h
same,Tmax,[7]; single oral dose 2 mg,2.5 h
same,Cmax/Dose,[7]; single oral dose 0.005 mg,0.007
same,AUC/dose,[7]; single oral dose 0.025 mg,0.053
same,CL/F,[7]; single oral dose 0.025 mg,19.0 L/h
same,Cmax/Dose,[7]; single oral dose 0.025 mg,0.006
same,AUC/dose,[7]; single oral dose 0.075 mg,0.049
same,CL/F,[7]; single oral dose 0.075 mg,20.5 L/h
same,Cmax/Dose,[7]; single oral dose 0.075 mg,0.006
same,AUC/dose,[7]; single oral dose 0.23 mg,0.061
same,CL/F,[7]; single oral dose 0.23 mg,16.3 L/h
same,Cmax/Dose,[7]; single oral dose 0.23 mg,0.006
same,AUC/dose,[7]; single oral dose 0.68 mg,0.046
same,CL/F,[7]; single oral dose 0.68 mg,21.9 L/h
same,Cmax/Dose,[7]; single oral dose 0.68 mg,0.005
same,AUC/dose,[7]; single oral dose 1.35 mg,0.054
same,CL/F,[7]; single oral dose 1.35 mg,18.7 L/h
same,Cmax/Dose,[7]; single oral dose 1.35 mg,0.005
same,AUC/dose,[7]; single oral dose 2 mg,0.046
same,CL/F,[7]; single oral dose 2 mg,22.0 L/h
same,Cmax/Dose,[7]; single oral dose 2 mg,0.005
same,mean plasma concentrations,[7]; total oral doses 0.005-2 mg,0.17 to 43.9 nM
same,mean plasma concentrations,[7]; total oral doses 0.025-0.68 mg,0.6 to 15 nM
same,"Dose active: [125I]-α-bungarotoxin binding ex vivo, increased receptor number",[8],0.1 µg/kg
same,predicted human Vdss,[9]; [16],2.7 L/kg
same,predicted human systemic clearance,[9]; [16],5.9 mL/min/kg
same,human predicted half-life,[9]; one-compartment pharmacokinetic model,5.3 h

# — patent US20080242688A1, “Method 741” (ASTRAZENECA AB, priority 2007, published 2008)
